The text below walks through data of patent publication US20210321638A1, “ANIMAL FEED AND METHODS TO PROVIDE SUCH FEED” (Nutreco Nederland B.V., priority 2016, published 2021).

One assay concerns E. coli. As to the kind of experiment: in vitro adhesion of bacteria to coated 96-well plate, time to onset OD600. The assay is classed as cell-based, Escherichia coli. The text has this: (§1) Use was made of a 96-well plate on which the ABM mycelium was coated. For this, the ABM mycelium (in this and each case below a fermented rye product was actually used, in which product the amount of ABM mycelium was about 15% w/w) was suspended in PBS to a final concentration of 1% (w/v) and mixed thoroughly. Subsequently the suspension was centrifuged to remove insoluble material. Thereafter, the supernatant was used for coating the wells of the microtiter plate. For the adhesion assessment, a Salmonella typhimurium suspension was added to the microtiter plate. The plate was then incubated for 30 minutes and after this incubation step washed with PBS. Subsequently growth medium was added to the wells and the time to onset OD600 value was determined. The optical density (OD) measurement was used as a tool to compare numbers of adhered bacteria to the coated wells of the 96-well plate with different compounds. The initial cell density of adhered bacteria correlates with the time-dependent detection of the growth by optical density measurement.
In a second in vitro study, the test was repeated, and additionally the effect on Salmonella enteritidis and E. coli was measured. Also, the amount of ABM mycelium was used in the full amount (see above; denoted “100%”), half of this amount (“50%”) and a quarter of this amount (“25%”). […]

The subject of another assay is Salmonella typhimurium. Described as above. It counts as cell-based. As to conditions: Table 4, Example 4; total amount of agents the same in all experiments; control 6.95. Here is the method:
Example 1 describes an in vitro model study for assessing the effect of ABM mycelium on bacterial adhesion. In this method the adhesion of Salmonella typhimurium to ABM mycelium is assessed.
as §1
In a second in vitro study, the test was repeated, and additionally the effect on Salmonella enteritidis and E. coli was measured. […]

As for `OC[C@H]1O[C@@H](O[C@H]2[C@H](O)[C@H](O)C(O)O[C@@H]2CO)[C@@H](O)[C@@H](O)[C@@H]1O` (stereo partly drawn) [β-1,4-mannobiose], the “effect on the adhesion of E. coli / onset OD600, in words” value in the assay with E. coli (Example 4, compared to the control and β-1,4-mannobiose alone) is listed as “does not have an effect”. Besides, the “time to onset OD600, E. coli” value in the assay on E. coli (Table 4, Example 4, total amount of agents the same in all experiments, control 7.10) was 7.30 h. In addition, the “time to onset OD600, S. typhimurium” value in the assay on Salmonella typhimurium stood at 5.90 h.
